Experimental data: paper PMC7849018 (Antimicrobial Agents and Chemotherapy, 2021)
“Also recorded” adds a separate entry of the source. Like-named read-outs stand apart in the source and are kept apart here.

What was measured:
[1] = molecular target: human mitochondrial POLRMT (Homo sapiens, UniProt O00411); experiment: Single nucleotide incorporation assay; format: biochemical; details: 500 μM nucleotide analog; relative to natural NTP at same concentration
[2] = molecular target: T1, human DNA polymerase gamma (Homo sapiens, UniProt P54098); experiment: Enzymatic inhibition assay; format: biochemical; details: read-out: IC50 DNA pol γ
T1 sequence (P54098 1-1239): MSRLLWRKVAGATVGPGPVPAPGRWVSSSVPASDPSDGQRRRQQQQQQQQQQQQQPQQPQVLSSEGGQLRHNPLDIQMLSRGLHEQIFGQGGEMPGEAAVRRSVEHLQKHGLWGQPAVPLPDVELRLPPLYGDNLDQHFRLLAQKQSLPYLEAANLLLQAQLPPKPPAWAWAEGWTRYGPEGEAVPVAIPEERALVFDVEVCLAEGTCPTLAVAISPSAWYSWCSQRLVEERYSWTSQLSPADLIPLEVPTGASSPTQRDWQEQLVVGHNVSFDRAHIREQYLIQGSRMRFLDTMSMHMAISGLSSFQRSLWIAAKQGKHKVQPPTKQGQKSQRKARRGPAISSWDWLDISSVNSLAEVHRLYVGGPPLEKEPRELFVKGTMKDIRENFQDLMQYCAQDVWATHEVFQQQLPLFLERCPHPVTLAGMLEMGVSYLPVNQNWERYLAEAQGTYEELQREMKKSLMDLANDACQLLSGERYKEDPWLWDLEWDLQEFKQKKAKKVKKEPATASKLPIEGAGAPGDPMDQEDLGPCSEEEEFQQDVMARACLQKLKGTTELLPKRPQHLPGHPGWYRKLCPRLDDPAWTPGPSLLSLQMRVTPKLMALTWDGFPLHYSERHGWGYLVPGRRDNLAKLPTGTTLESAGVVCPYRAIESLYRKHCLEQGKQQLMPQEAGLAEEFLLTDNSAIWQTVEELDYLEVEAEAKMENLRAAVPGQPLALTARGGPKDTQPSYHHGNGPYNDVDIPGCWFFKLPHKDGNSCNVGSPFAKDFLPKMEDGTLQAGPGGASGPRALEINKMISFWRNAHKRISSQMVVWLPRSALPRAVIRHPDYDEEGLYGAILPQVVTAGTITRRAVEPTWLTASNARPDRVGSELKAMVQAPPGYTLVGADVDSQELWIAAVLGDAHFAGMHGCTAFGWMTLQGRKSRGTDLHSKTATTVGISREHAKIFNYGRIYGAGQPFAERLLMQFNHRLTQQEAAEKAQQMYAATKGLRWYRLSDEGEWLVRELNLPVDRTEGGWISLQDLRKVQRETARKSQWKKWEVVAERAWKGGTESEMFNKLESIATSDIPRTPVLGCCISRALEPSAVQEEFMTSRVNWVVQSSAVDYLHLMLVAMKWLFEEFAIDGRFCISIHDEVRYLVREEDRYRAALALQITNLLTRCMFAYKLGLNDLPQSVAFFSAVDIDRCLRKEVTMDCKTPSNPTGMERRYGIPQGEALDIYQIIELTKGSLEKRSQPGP
T1 sequence (Q9UHN1 26-485 partner limits assumed): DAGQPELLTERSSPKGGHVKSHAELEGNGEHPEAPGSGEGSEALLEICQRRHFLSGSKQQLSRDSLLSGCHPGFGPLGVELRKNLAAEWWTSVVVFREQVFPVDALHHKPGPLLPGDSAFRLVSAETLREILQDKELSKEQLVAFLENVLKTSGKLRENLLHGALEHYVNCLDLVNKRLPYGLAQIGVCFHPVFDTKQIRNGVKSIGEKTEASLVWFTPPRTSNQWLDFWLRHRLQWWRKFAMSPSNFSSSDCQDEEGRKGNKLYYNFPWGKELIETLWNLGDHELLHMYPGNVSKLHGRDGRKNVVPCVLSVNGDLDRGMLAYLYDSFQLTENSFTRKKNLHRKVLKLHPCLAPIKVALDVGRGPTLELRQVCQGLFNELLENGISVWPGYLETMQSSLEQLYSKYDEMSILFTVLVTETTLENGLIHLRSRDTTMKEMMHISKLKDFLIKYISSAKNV

[3] = molecular target: human DNA polymerase beta (Homo sapiens, UniProt P06746); experiment: Enzymatic inhibition assay; format: biochemical; details: read-out: IC50 DNA pol β
[4] = molecular target: human POLRMT (Homo sapiens, UniProt O00411); experiment: Enzymatic inhibition assay; format: biochemical; details: read-out: IC50 POLRMT pol
[5] = molecular target: T2, human mitochondrial DNA Pol γ (Homo sapiens, UniProt P54098); experiment: Single nucleotide incorporation assay; format: biochemical; details: 50 μM nucleotide analog; relative to natural dNTP at same concentration
T2 sequence (P54098 1-1239): T1 sequence (P54098 1-1239)
T2 sequence (Q9UHN1 26-485 partner limits assumed): T1 sequence (Q9UHN1 26-485 partner limits assumed)

[6] = in vitro; details: human, CC50, Myeloid progenitors; 11- to 14-day treatment
[7] = Cellular ATP alongside the mitochondrial protein synthesis assay; details: human, PC-3 cells
[8] = Mitochondrial respiration; format: cell-based; details: human, PC-3 cells, 3-day treatment
[9] = tested on: SDH-A (nuclear DNA-encoded succinate dehydrogenase, complex II) protein level; experiment: Mitochondrial protein synthesis assay; format: cell-based; details: human, PC-3 cells
[10] = tested on: COX-1 (mitochondrial DNA-encoded cytochrome c oxidase, complex IV) protein level; experiment: Mitochondrial protein synthesis assay; format: cell-based; details: human, PC-3 cells
[11] = Mitochondrial respiration; format: cell-based; details: human, RPTEC cells, RPTECs, 3-day treatment
[12] = Mitochondrial respiration; format: cell-based; details: human; for CC50 at 3 day: PHH cells (primary human hepatocytes); for CC50 at 3 days: primary human hepatocytes (PHH)
[13] = Mitochondrial respiration; format: cell-based; details: human, HepG2 cells, 3-day treatment
[14] = tested on: HepG2; details: read-out: 5-day CC50 HepG2 cells Anaerobic (glucose)
[15] = tested on: PC-3; details: read-out: 5-day CC50 PC-3 cells Anaerobic (glucose)
[16] = tested on: mitochondrial DNA (mtDNA) in HepG2 cells; experiment: Mitochondrial DNA content by qPCR; format: cell-based, human; details: continual treatment for 10 days
[17] = in vitro; details: human
[18] = in vitro; details: human; remark: listed apart in the source
[19] = cited from earlier work
[20] = hospitalized patients with COVID-19; RDV for up to 10 days; cited from earlier work
[21] = tested on: SARS-CoV-2 in human airway epithelial cells (HAE); details: read-out: EC50 against SARS-CoV-2; cited from earlier work
[22] = moderate COVID-19, cited from earlier work
[23] = tested on: PC-3 galactose-adapted cell line; details: CC50 galactose versus glucose culture
[24] = cited from earlier work; remark: listed apart in the source
[25] = tested on: Stimulated PBMC; details: 5-day treatment
[26] = tested on: HepG2 cells; experiment: Intracellular reactive oxygen species level; format: cell-based, human
[27] = tested on: HepG2 galactose-adapted cell line; details: read-out: 5-day CC50 HepG2 cells Aerobic (galactose)
[28] = pH 7.4, 3-day CC50 Spare respiration
[29] = healthy subjects, repeat-dose study 150 mg once daily, reversible
[30] = humans, repeated dosing of 150 mg

human mitochondrial POLRMT, sequence (O00411 42-1230): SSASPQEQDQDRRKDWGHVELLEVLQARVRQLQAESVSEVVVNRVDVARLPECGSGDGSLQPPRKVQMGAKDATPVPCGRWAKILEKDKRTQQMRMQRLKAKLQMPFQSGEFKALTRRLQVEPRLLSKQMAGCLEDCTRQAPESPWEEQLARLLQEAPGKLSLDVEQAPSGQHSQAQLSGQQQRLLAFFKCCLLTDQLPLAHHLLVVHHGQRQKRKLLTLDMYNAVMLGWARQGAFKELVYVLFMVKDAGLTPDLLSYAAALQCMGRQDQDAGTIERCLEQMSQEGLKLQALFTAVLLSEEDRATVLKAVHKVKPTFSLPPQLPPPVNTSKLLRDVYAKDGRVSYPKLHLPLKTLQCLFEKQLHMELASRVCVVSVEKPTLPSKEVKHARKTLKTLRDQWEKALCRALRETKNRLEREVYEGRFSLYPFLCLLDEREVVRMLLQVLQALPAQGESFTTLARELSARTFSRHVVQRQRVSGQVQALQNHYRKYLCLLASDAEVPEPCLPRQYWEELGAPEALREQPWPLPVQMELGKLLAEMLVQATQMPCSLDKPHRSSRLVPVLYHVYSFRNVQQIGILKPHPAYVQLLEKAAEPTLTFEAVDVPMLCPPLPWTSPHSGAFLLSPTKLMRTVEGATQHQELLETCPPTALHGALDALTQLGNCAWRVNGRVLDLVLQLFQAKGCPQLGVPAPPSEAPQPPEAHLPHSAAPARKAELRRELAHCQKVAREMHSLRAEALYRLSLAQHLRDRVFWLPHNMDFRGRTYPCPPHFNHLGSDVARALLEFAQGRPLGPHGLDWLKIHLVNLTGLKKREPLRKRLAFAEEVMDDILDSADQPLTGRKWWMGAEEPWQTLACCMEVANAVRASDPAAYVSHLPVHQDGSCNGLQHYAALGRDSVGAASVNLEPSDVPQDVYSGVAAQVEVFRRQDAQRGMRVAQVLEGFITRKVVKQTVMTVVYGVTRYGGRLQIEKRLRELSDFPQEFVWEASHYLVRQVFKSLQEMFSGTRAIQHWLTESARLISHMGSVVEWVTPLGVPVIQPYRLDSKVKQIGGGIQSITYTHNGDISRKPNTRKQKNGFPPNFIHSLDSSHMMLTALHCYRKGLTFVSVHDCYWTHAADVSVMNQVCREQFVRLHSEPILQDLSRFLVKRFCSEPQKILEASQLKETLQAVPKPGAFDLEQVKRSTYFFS
human POLRMT, sequence (O00411 42-1230): as above

## COc1nc(N)nc2c1ncn2[C@@H]1O[C@H](COP(=O)(N[C@@H](C)C(=O)OCC(C)(C)C)Oc2cccc3ccccc23)[C@@H](O)[C@@]1(C)O (some centres unmarked) [2’CMe-GTP, 2′CMe-GTP]
[1]
  Rate of incorporation (% of natural dNTP or NTP), mtRNA polymerase: 92% ± 33%

## Cc1cn([C@H]2CC[C@@H](COP(=O)(O)OP(=O)(O)OP(=O)(O)O)O2)c(=O)[nH]c1=O [3′dTTP]
[2]
  IC50: 1.2 µM
[3]
  IC50: 1.9 µM

## Nc1nc2c(ncn2[C@@H]2O[C@H](COP(=O)(O)OP(=O)(O)OP(=O)(O)O)C[C@H]2O)c(=O)[nH]1 [3′deoxy GTP, 3′-deoxy GTP]
[4]
  IC50: 4.2 µM

## CC(C)C(=O)OC[C@@]1(N=[N+]=[N-])O[C@@H](n2ccc(N)nc2=O)[C@H](OC(=O)C(C)C)[C@@H]1OC(=O)C(C)C [4’CN-CTP, 4′-CN-CTP]
[1]
  Rate of incorporation (% of natural dNTP or NTP), mtRNA polymerase: 112% ± 10%

## Nc1ncn([C@H]2C[C@H](O)[C@@H](COP(=O)(O)OP(=O)(O)OP(=O)(O)O)O2)c(=O)n1 [5-aza-2′-dCTP, 5-aza-2′-deoxyCTP]
[5]
  Rate of incorporation (% of natural dNTP or NTP), DNA polymerase γ: 79% ± 8%

## O=c1[nH]cc(F)c(=O)[nH]1 [5-fluorouracil, reference compound]
[6]
  CC50: 2.2 ± 0.6 µM

## O=C(N[C@H](CO)[C@H](O)c1ccc([N+](=O)[O-])cc1)C(Cl)Cl [Chloramphenicol, chloramphenicol, reference compound]
[7]
  CC50 at 5 days: 14.1 ± 3.6 µM
[8]; 3-day CC50 Cellular ATP
  CC50 at 3 day: > 50 µM
[8]; 3-day CC50 Total DNA content
  CC50 at 3 day: > 50 µM
[8]; [28]
  CC50 at 3 day: 4.8 ± 1.3 µM
[9]
  CC50 at 5 days: > 25 µM
[10]
  CC50 at 5 days: 2.6 ± 0.6 µM

## N#C[C@@]1(c2ccc3c(N)ncnn23)O[C@H](CO)[C@@H](O)[C@H]1O [GS-441524]
[7]
  CC50 at 5 days: > 100 µM
[11]; 3-day CC50 Cellular ATP
  CC50 at 3 day: > 100 µM
[11]; 3-day CC50 Total DNA content
  CC50 at 3 day: > 100 µM
[11]; [28]
  CC50 at 3 day: > 100 µM
[12]
  CC50 at 3 day: > 100 µM
  CC50 at 3 days: > 100 µM
[12]; pH 7.4
  CC50 at 3 days: > 100 µM
[8]; 3-day CC50 Cellular ATP
  CC50 at 3 day: > 100 µM
[8]; 3-day CC50 Total DNA content
  CC50 at 3 day: > 100 µM
[8]; [28]
  CC50 at 3 day: > 100 µM
[13]; 3-day CC50 Cellular ATP
  CC50 at 3 day: > 100 µM
[13]; 3-day CC50 Total DNA content
  CC50 at 3 day: > 100 µM
[13]; [28]
  CC50 at 3 day: > 100 µM
[9]
  CC50 at 5 days: > 100 µM
[6]
  CC50: 11.7 ± 9.6 µM
[14]
  CC50: > 100 µM
[15]
  CC50: > 100 µM
[16]
  effect on mtDNA content (in words): overall minimal
[17]
  CC50 at 5 days: > 100 µM
[10]
  CC50 at 5 days: > 100 µM
[18]
  CC50 at 5 days: > 100 µM

## [H]/N=C(/N)N/C(=N/[H])NCCc1ccccc1 [Phenformin, phenformin, reference compound]
[12]
  CC50 at 3 day: 9.7 ± 4.5 µM
  CC50 at 3 days: 22.1 ± 1.9 µM
[12]; pH 7.4
  CC50 at 3 days: 1.9 ± 0.5 µM

## CCC(CC)COC(=O)[C@H](C)N[P@](=O)(OC[C@H]1O[C@@](C#N)(c2ccc3c(N)ncnn23)[C@H](O)[C@@H]1O)Oc1ccccc1 [RDV, Remdesivir]
[19]; 5-day RDV treatment
  adverse events of elevations in ALT: 6%
  adverse events of elevations in AST: 5%
[19]; 10-day RDV treatment
  adverse events of elevations in ALT: 8%
  adverse events of elevations in AST: 7%
[7]
  CC50 at 5 days: 11.3 ± 3.3 µM
[11]; 3-day CC50 Cellular ATP
  CC50 at 3 day: 16.9 ± 4.1 µM
[11]; 3-day CC50 Total DNA content
  CC50 at 3 day: 14.3 ± 3.3 µM
[11]; [28]
  CC50 at 3 day: 7.3 ± 2.7 µM
[12]
  CC50 at 3 day: 7.8 ± 2.2 µM
  CC50 at 3 days: 13.4 ± 1.7 µM
[12]; pH 7.4
  CC50 at 3 days: 7.6 ± 1.9 µM
[8]; 3-day CC50 Cellular ATP
  CC50 at 3 day: 24 ± 1.4 µM
[8]; [28]
  CC50 at 3 day: 2.5 ± 0.1 µM
[20]
  adverse events of increased amino transferase levels, including ALT, AST, or both: 6 % of subjects
[13]; 3-day CC50 Cellular ATP
  CC50 at 3 day: 7.9 ± 0.1 µM
[13]; 3-day CC50 Total DNA content
  CC50 at 3 day: 6.3 ± 0.9 µM
[13]; [28]
  CC50 at 3 day: 10.6 ± 0.1 µM
[21]
  EC50: 0.0099 µM
[9]
  CC50 at 5 days: 8.6 ± 1.3 µM
[22]; 5-day RDV
  Grade 3 or 4 adverse events, ALT: 2%
  Grade 3 or 4 adverse events, AST: 3%
  adverse events of elevations in ALT: 34%
  adverse events of elevations in AST: 32%
[22]; 10-day RDV
  Grade 3 or 4 adverse events, ALT: 3%
  Grade 3 or 4 adverse events, AST: 1%
  adverse events of elevations in ALT: 32%
  adverse events of elevations in AST: 32%
[6]
  CC50: 5.1 ± 2.3 µM
[23]
  enhancement of cytotoxicity by aerobic conditions: 6 fold
[24]; [29]
  treatment-emergent grade 1 or 2 ALT elevations: 50%
  treatment-emergent grade 1 or 2 AST elevations: 44%
[24]; [30]
  plasma Cmax: 2,720 ng/ml
  t1/2: 1.11 h
[24]; read-out: plasma Cmax, humans, repeated dosing of 150 mg
  Cmax: 4.5 µM
[25]
  CC50: 14.8 ± 5.8 µM
[16]
  effect on mtDNA content (in words): lack of dose response
[10]
  CC50 at 5 days: 8.9 ± 1.1 µM
[26]; 100 μM, 24-h incubation
  decrease in cell viability: 60%
[26]; 100 μM, 24-h incubation, vs DMSO control
  increase in ROS levels: 60%
[26]; 3.1 to 50 μM, 24-h incubation
  effect on ROS levels: no significant increase in ROS levels; also recorded: no effect on ROS
[27]
  CC50: 11.1 ± 1.2 µM
[18]
  CC50 at 5 days: 1.4 ± 0.1 µM

## CC1=CC(=O)c2ccccc2C1=O [menadione, reference compound]
[26]; 30-minute incubation (100 or 200 μM)
  increase in ROS levels: > 3 fold
